Source: publication PMC10298626 (International Journal of Molecular Sciences, 2023)
Marks after values point to notes of the source that are not given here.

What was measured:
in vitro = assay type: cell-based; settings: mouse, RAW264.7 cells, then LPS (500 ng/mL) 20 h, read-out: Cell viability, Average (%); for viability at 22 h, 20 μM: 20 μM for 2 h; for viability at 22 h, 40 μM: 40 μM for 2 h; for viability at 22 h, 80 μM: 80 μM for 2 h
Procedure: To investigate the anti-inflammatory activity of coumarin derivatives, cell viability was analyzed by treating RAW264.7 cells with 23 types of coumarin derivatives at concentrations of 20, 40, and 80 μM for 2 h and with LPS for 20 h.
Mouse macrophage RAW264.7 cells were purchased from the Korea Cell Line Bank (Seoul, Republic of Korea) and cultured in Dulbecco’s Modified Eagle Medium (Corning, NY, USA) containing 10% fetal bovine serum and 1% penicillin/streptomycin at 37 °C and 5% CO2. The medium was changed every 2 days and subcultured when the cells grew > 80%.
EZ-Cytox cell viability assay kit (Dogen, Suwon, Republic of Korea) was used to measure cell viability according to the manufacturer’s instructions. RAW264.7 cells were seeded into a 96-well plate (1 × 10^5 cells/well) and treated with coumarin derivatives at concentrations of 20, 40, and 80 μM. After 2 h, the cells were treated with LPS (500 ng/mL) and cultured for 24 h in a 37 °C, 5% CO2 incubator. The culture supernatant was treated with 10% EZ-Cytox reagent, and a microplate reader was used to measure the absorbance at 450 nm.

[1] = tested on: LPS-stimulated RAW264.7 cells; experiment: NO production (Griess reagent) in LPS-stimulated RAW264.7 cells; assay type: cell-based, Mouse; settings: for NO production, Average / NO production, Average (μM): then LPS (500 ng/mL) 20 h, LPS alone 25.9, control 3.1; for Anti-inflammatory effect (inhibition of NO secretion), in words: 20, 40, and 80 μM, compared with LPS-only treatment
Procedure: A high concentration of NO promotes the synthesis of inflammatory mediators, leading to an inflammatory response, and has been reported to be a cause of various immune diseases. Therefore, this study was conducted to investigate the effect of coumarin derivatives on the production of NO induced by LPS stimulation in RAW264.7 cells. The cells were treated with coumarin derivatives at concentrations of 20, 40, and 80 μM for 2 h. Then, the cells were treated with LPS. After 20 h, the culture supernatant was recovered, and the amount of NO was measured. […] The anti-inflammatory activity of these derivatives depended on the position of the substituted group rather than the electron density of the substituted group.
The Griess reagent was used to measure NO production. RAW264.7 cells were seeded into a 96-well plate and cultured for 24 h. The cells were treated with 20, 40, and 80 μM of coumarin derivatives, cultured for 2 h, and then cultured with LPS (500 ng/mL) for 20 h. The same amount of cell supernatant and Griess reagent were used for the reaction, and absorbance was measured at 540 nm.

SMILES | viability at 22 h, 20 μM (in vitro) | viability at 22 h, 40 μM (in vitro) | viability at 22 h, 80 μM (in vitro) | NO production, Average ([1]; 20 μM for 2 h) | NO production, Average ([1]; 40 μM for 2 h) | NO production, Average ([1]; 80 μM for 2 h) | Anti-inflammatory effect (inhibition of NO secretion), in words [1] | NO production, Average (μM) ([1]; 80 μM for 2 h) | NO production, Average (μM) ([1]; 40 μM for 2 h)
N#CC1=C(N)Oc2c(c(=O)oc3ccccc23)C1c1ccccc1F (centres unmarked) [Coumarin derivative 1] | 90.4% | 96% | 109% | 29.50 µM | 29.82 µM | 28.71 µM | almost no anti-inflammatory effect |  | 
N#CC1=C(N)Oc2c(c(=O)oc3ccccc23)C1c1ccc(Cl)cc1 (centres unmarked) [Coumarin derivative 8] | 103% | 107% | 93.5% | 32.19 µM | 24.11 µM |  |  | 10.64 *** μM | 
N#CC1=C(N)Oc2c(c(=O)oc3ccccc23)C1c1ccccc1Br (centres unmarked) [Coumarin derivative 18] | 129% | 130% | 138% | 28.03 µM | 27.87 µM | 25.95 µM | almost no anti-inflammatory effect |  | 
COc1cccc(C2C(C#N)=C(N)Oc3c2c(=O)oc2ccccc32)c1 (centres unmarked) [Coumarin derivative 16] | 107% | 102% | 96.3% | 27.58 µM | 26.33 µM |  |  | 16.17 *** μM | 
N#CC1=C(N)Oc2c(c(=O)oc3ccccc23)C1c1ccccc1OC(F)(F)F (centres unmarked) [Coumarin derivative 12] | 99.2% | 102% | 106% | 16.58 µM |  |  | showed anti-inflammatory effects | 17.98 *** μM | 17.28 *** μM
Cc1cccc(C2C(C#N)=C(N)Oc3c2c(=O)oc2ccccc32)c1 (centres unmarked) [Coumarin derivative 10] | 111% | 113% | 104% | 24.24 µM |  |  | inhibited NO secretion in a concentration-dependent manner | 9.21 *** μM | 20.34 ** μM
Cc1ccccc1C1C(C#N)=C(N)Oc2c1c(=O)oc1ccccc21 (centres unmarked) [Coumarin derivative 9] | 118% | 111% | 112% | 23.27 µM | 24.10 µM | 21.32 µM | almost no anti-inflammatory effect |  | 
N#CC1=C(N)Oc2c(c(=O)oc3ccccc23)C1c1cccc(C#N)c1 (centres unmarked) [Coumarin derivative 21] | 131% | 122% | 102% | 28.68 µM | 22.73 µM |  | weak anti-inflammatory effects | 11.97 *** μM | 
N#CC1=C(N)Oc2c(c(=O)oc3ccccc23)C1c1ccc(Br)cc1 (centres unmarked) [Coumarin derivative 20] | 114% | 124% | 135% | 31.89 µM | 30.12 µM |  |  | 19.52 ** μM | 
N#CC1=C(N)Oc2c(c(=O)oc3ccccc23)C1c1cccc(C(F)(F)F)c1 (centres unmarked) [Coumarin derivative 5] | 86.8% | 110% | 113% | 30.77 µM | 28.71 µM | 25.38 µM | almost no anti-inflammatory effects |  | 
N#CC1=C(N)Oc2c(c(=O)oc3ccccc23)C1c1cccc(Br)c1 (centres unmarked) [Coumarin derivative 19] | 117% | 119% | 120% | 27.07 µM | 17.76 µM |  | inhibited NO secretion in a concentration-dependent manner | 10.05 *** μM | 
N#CC1=C(N)Oc2c(c(=O)oc3ccccc23)C1c1ccc(OC(F)(F)F)cc1 (centres unmarked) [Coumarin derivative 14] | 110% | 95.8% | 102% | 27.72 µM | 24.52 µM |  | weak anti-inflammatory effects at high concentrations | 16.31 *** μM | 
COc1ccccc1C1C(C#N)=C(N)Oc2c1c(=O)oc1ccccc21 (centres unmarked) [Coumarin derivative 15] | 109% | 112% | 114% | 26.33 µM | 22.71 µM |  | showed anti-inflammatory effects | 19.37 ** μM | 
N#CC1=C(N)Oc2c(c(=O)oc3ccccc23)C1c1ccc(C(F)(F)F)cc1 (centres unmarked) [Coumarin derivative 6] | 98.7% | 111% | 111% | 30.92 µM | 26.49 µM |  | weak anti-inflammatory effects at high concentrations | 16.82 *** μM | 
N#CC1=C(N)Oc2c(c(=O)oc3ccccc23)C1c1ccccc1 (centres unmarked) [Coumarin derivative 23] | 119% | 118% | 117% | 30.77 µM | 29.80 µM | 27.39 µM |  |  | 
